In this assay the test system is insulin resistant C57Bl/6 mice. Nature of the assay: Glucose tolerance test in high-fat diet fed (HFD) mice. The format is in vivo, mouse. As to the method: Male C57BL/6 mice (Taconic) were used at 9-12 weeks of age. Animals were on a 12 hour light cycle with non-restricted food and water. The HFD animals were fed an HFD (D12492, 60% fat content; Research Diets) for 2 weeks. All animal procedures were approved by the Malmo/Lund Committee for Animal Experiment Ethics, Lund, Sweden. HFD mice fasted overnight (12 hours) were injected intra peritoneal (i.p.) with apoA-I peptides as listed above ([…] in PBS pH 7.4 for the 54-mer fragment and 6-7 mg/kg for other fragments in PBS, pH 7.4; control animals received NaCl) and this was followed by collection of serum samples at the indicated times. Glucose (50 mg/mouse) was injected i.p. 3 hours after treatments, followed by collection of serum samples at the indicated times. Blood glucose levels were measured (OnetouchUltra2; Lifescan), and insulin levels were assayed in serum using ELISA (Mercodia).

The mark [1] stands for this setting: 7 mg/kg i.p., 120 minutes of the test.

Take “190-243 polypeptide fragment: polypeptide fragment consisting of amino acids 190-243 of the full-length human apoA-I protein, C-terminal domain, 54-mer, recombinant (AEYHAKATEHLSTLSEKAKPALEDLRQGLLPVLESFKVSFLSALEEYTKKLNTQ; listed as Homo Sapiens)”: under setting [1], the “increase of glucose-stimulated insulin secretion (AUC) versus control” value was “about 60%” and the “reduction of total glucose (AUC) versus control” value is “about 40%”. For the same substance, under “single i.p. injection 7 mg/kg, glucose load 3 hours later, FIG. 10c,d”, the “insulin secretion in glucose tolerance test (in words)” value was “significantly improved”.

The values are drawn from patent US20150353626A1, “APOLIPOPROTEIN A-I DERIVED PEPTIDES FOR TREATMENT OF HYPERGLYCAEMIA” (priority 2013, published 2015).
